Measurements: publication PMC6063804 (EJNMMI Research, 2018)
pK i: −log10 of the molar value. Where two headings read alike, the source gives them in different places.

What was measured:
NMDA-R ion channel site = system: NMDA-R ion channel site; design: method as in PMID 26325093; conditions: rats, 3 mg ∙ kg^−1 IV, cited from earlier work
ion channel of NMDA-R = target: ion channel of NMDA-R; design: method as in PMID 25648682; conditions: unlabelled compounds; rat forebrain membranes; read-out: concentrations that inhibit specific binding of [^3H]MK-801; cited from earlier work
ion channel site = system: ion channel site; design: method as in PMID 26325093; conditions: displacement binding studies; cited from earlier work
NMDA-R = system: NMDA-R; design: method as in PMID 26661185; conditions: humans; intravenous ketamine 0.3 mg · kg^−1; on average; cited from earlier work
PCP binding site = conditions: cited from earlier work
[1] = Tolerability of ketamine infusion; type: in vivo, human
Procedure: (§1) The (S+)-isomer of ketamine (0.5 mg · kg^−1) was dissolved in NaCl 50 mL and administered intravenously in a pseudo-steady state model with a sub-acute loading dose. First, ketamine was administered for 40 min at a rate of 0.006 mg · kg^−1 · min^−1 followed by a 130 min equilibrium phase at 0.002 mg · kg^−1 · min^−1. [^18F]PK-209 injection and start of PET were performed at 10 min into the equilibrium phase, following 0.26 mg · kg^−1 administration in the preceding 50 min.

[2] = Plasma ketamine concentration during PET; type: in vivo, human
From the text: The final arterial plasma input function was derived using both continuous and discrete arterial blood data. The input function was corrected for plasma to whole blood ratio, metabolites, and time delay. For each scan, two additional plasma input functions were generated to investigate the effect of within-subject and between-subject variability in plasma data. For the within-subject averaged input function, the mean of PET1 and PET2 [^18F]PK-209 parent fractions per subject were used at each of the eight sample timepoints for both scans. For the population-averaged input function, the mean parent fractions for all five subjects in the TRT and ketamine groups (i.e., 10 scans) were taken at each timepoint. The manual arterial blood samples were also used for assessment of the plasma ketamine concentration. The area under the ketamine concentration–time curve was estimated by means of the trapezoidal rule.
as §1

[3] = design: method as in PMID 18176855; conditions: 1.1 mg ∙ kg^−1 S-ketamine over 75 min; cited from earlier work

CNC1(c2ccccc2Cl)CCCCC1=O (racemic) [(±)ketamine]
inhibition of [^3H]MK-801 binding (NMDA-R ion channel site; 1 min post-dosing): 67% | inhibition of [^3H]MK-801 binding (NMDA-R ion channel site; 20 min post-dose): 19%

COc1cccc(N(C)C(=N)Nc2cc(SC)ccc2Cl)c1 [GMOM, reference compound]
pK i (ion channel of NMDA-R): 7.66

C[C@]12N[C@H](Cc3ccccc31)c1ccccc12 [MK-801]
potency relative to (±)ketamine at the ion channel site (ion channel site): two orders of magnitude more potent

COc1cccc(N(C)C(=N)Nc2cc(SC)ccc2Cl)c1 [[^11C]GMOM, [11C]N-(2-chloro-5-thiomethylphenyl)-N′-(3-methoxy-phenyl)-N′-methylguanidine]
reduction of radiotracer net influx rate (Ki) in whole brain gray matter (NMDA-R): 66%

CSc1cccc(N(C)C(N)=Nc2cc(SCC[18F])ccc2Cl)c1 [[^18F]GE-179]
block of the PET signal by cold GE-179 (PCP binding site; GE-179 0.6 mg ∙ kg^−1 at steady state, bolus-plus-infusion, anesthetized non-human primates): did not significantly block the PET signal | specificity of the PET signal (PCP binding site; preclinical in vivo evaluation): largely non-specific

CNC1(c2ccccc2Cl)CCCCC1=O (stereo not drawn) [ketamine]
tolerability ([1]; S-ketamine 0.5 mg · kg^−1 intravenous infusion, healthy subjects): well tolerated by all subjects | feelings of dissociation ([1]; at the start of PET scanning): reported by all subjects | mean plasma ketamine concentration, plateau ([2]; between 20 and 60 min after the start of PET, 0.5 mg ∙ kg^−1 infusion): ~ 100 ng ∙ mL^−1 | mean plasma ketamine concentration ([2]; end of the scan, 160 min since the start of infusion): ~ 70 ng ∙ mL^−1 | mean plasma concentration [3]: 0.173 µg/mL
